Measured values as given in US12049486B2, “PAC1 receptor agonists (MAXCAPs) and uses thereof” (priority 2017, dated 2024).
Where no end group is shown, it is not given here.

Assay: Hepatic fat / liver cirrhosis, NASH/NAFLD by H&E staining in DIO WT mice
Assay type: in vivo
Settings: versus vehicle
Text: We have shown that these novel MAXCAP compounds, that are PAC1 specific agonists, can potentially treat Nonalcoholic steatohepatitis (NASH), non-alcoholic […] (NAFLD) and liver fibrosis. We injected these MAXCAP compounds in DIO WT mice and measured hepatic fat in the liver (see, e.g., FIG. 5).

With “Pituitary Adenylate Cyclase Activating Polypeptide (HSDGIFTDSYSRYRKQMAVKKYLAAVLGKRYKQRVKNK; ends and bridges not checked; listed as Homo sapiens) [PACAP, native peptide]” the “liver cirrhosis and NASH/NAFLD” value was “significant reduction in liver cirrhosis and NASH/NAFLD”.
